What was measured:
TLR4 = TLR4 agonist activity of mouse serum, luciferase reporter in HEK293/Luc(+)/TLR4(+) cells; format: cell-based; details: mouse serum 6 hours after APAP 500 mg/kg vs 0 mg/kg sham controls, p<0.001
Description: FIGS. 7(a)-7(c): (a) TLR4 Signaling Complex is found in many cell types. It can also be stably transfected into reporter cells to measure TLR4 agonist activity in vitro; (b) is a schematic representation of HEK293 cells which have been transfected with TLR4 complex and a luciferase reporter gene to measure TLR4 agonist activity in vitro. The HEK293/Luc(+)/TLR4(+) cells, used to measure TLR4 agonist activity in mouse serum in (c) are used to screen dog serum for TLR4 agonist activity; (c) TLR4 agonist activity was elevated in mouse blood after toxic exposure to APAP (500 vs 0 mg/kg). This in vitro assay is based on a luciferase reporter gene linked to NFκβ in HEK293 cells which responds to TLR4 activation. Only trace background activity was detected in HEK293 cells lacking the TLR4 complex, labeled TLR4(−), confirming specificity of the luciferase activity to TLR4.
Further evidence supporting TLR4 as a signaling molecule in the SIRS response to ALF is illustrated in FIG. 7. FIGS. 7a-b show the assay, as well as the TLR4 receptor complex, used in the study.
TLR4 agonist activity are measured by an in vitro assay using HEK293/Luc(+)/TLR4(+) cells (see, e.g., Akira S, Takeda K. Toll-like receptor signaling. Nat Rev Immunol 2004; 4:499-511). […] Luciferase reporter gene signal are quantified by TD-20/20 luminometer (Turner Designs, Sunnyvale, Calif.). […]

TLR4 − (Deficient) mice = assay: Toxin-induced liver injury in TLR4 − (deficient) mice; format: in vivo; details: n = 10/group
Method: (§1) The role of TLR4 in ALF and SIRS was studied. […] A similar protective effect of TLR4 deficiency was also observed when wild-type and TLR4 mutant mice were treated with acetaminophen (APAP) at 500 mg/kg—a dose which is highly toxic with 100% mortality in wild-type mice (Table 2). Systemic inflammation was confirmed in wild-type mice after both APAP and Dgal/LPS by rising blood levels of TNFα and neutrophil infiltration in their lungs at necropsy. In contrast, lung histology and systemic levels of TNFα remained normal in TLR4 deficient mice. […] TLR4 deficient Kupffer cells may also explain the protective effects observed in TLR4 deficient mice after toxin exposure (FIG. 6c). […] Pretreatment with gadolinium chloride reduced the number of Kupffer cells in the liver by 48% (31±6 to 16±4 cells/HPF, p<0.001), and lowered peak ALT levels from 2458±2347 U/mL to 278±196 U/mL.

TLR4 + (Wild type) mice = assay: Toxin-induced liver injury in TLR4 + (wild type) mice; format: in vivo
Method: as §1

[1] = wild type mice, 6 hr, n = 10/group

SMILES | TLR4 agonist activity in serum (TLR4) | ALT, TLR4 − (TLR4 − (Deficient) mice; 18 hr, APAP 500 mg/kg) [U/mL] | ALT, TLR4 + (TLR4 + (Wild type) mice; wild type mice, 18 hr, APAP 500 mg/kg, n = 10/group) [U/mL] | mortality (TLR4 + (Wild type) mice; wild-type mice, 500 mg/kg) [%] | ALT, TLR4 − (TLR4 − (Deficient) mice; 6 hr) [U/mL] | TUNEL, TLR4 − (TLR4 − (Deficient) mice; 6 hr) | ALT, TLR4 + (TLR4 + (Wild type) mice; [1]) [U/mL] | TUNEL, TLR4 + (TLR4 + (Wild type) mice; [1]) | number of Kupffer cells in the liver (TLR4 + (Wild type) mice; after pretreatment, 31±6 without) [cells/HPF] | reduction of the number of Kupffer cells in the liver (TLR4 + (Wild type) mice; pretreatment of wild-type mice, p<0.001) [%]
CC(=O)Nc1ccc(O)cc1 [APAP, acetaminophen] | high levels of TLR4 agonist activity | 4810 ± 4045 | 9054 ± 4793 | 100 | – | – | – | – | – | –
N[C@H]1C(O)O[C@H](CO)[C@H](O)[C@@H]1O (stereo partly drawn) [DGal alone, D-galactosamine] | – | – | – | – | 54 ± 18 | <1 +cells/HPF | 43 ± 9 | <1 +cells/HPF | – | –
[Cl][Gd]([Cl])[Cl] [gadolinium chloride] | – | – | – | – | – | – | 278±196 | – | 16±4 | 48
